Legend:
Test in all cases: relative viability (nuclei count vs DMSO), 5 days (fraction); higher = more cells survive
HCC-44 = test system: HCC-44
In short: (§1)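 After 5 days of treatment, lung cancer cells in 1536-well plates were fixed and stained in a single step (final 0.05% Triton X-100, 1% formaldehyde, 1 ug/ml Hoechst) and their nuclei counted on 4× images. Treatment had been applied by pin tool the day after seeding as one drug alone or as a fixed anchor-drug dose with five library-drug doses (not always all listed) in √10 steps. Relative viability is the nuclei count of treated wells divided by that of vehicle wells, and values are medians of duplicate plates.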

NCI-H441 = test system: NCI-H441
In short: as §1

NCI-H23 = test system: NCI-H23
In short: as §1

NCI-H3122 = test system: NCI-H3122
In short: as §1

NCI-H2405 = test system: NCI-H2405
In short: as §1

PC-3 [JPC-3] = test system: PC-3 [JPC-3]
In short: as §1

NCI-H647 = test system: NCI-H647
In short: as §1

HCC-366 = test system: HCC-366
In short: as §1

LXF-289 = test system: LXF-289
In short: as §1

UMC-11 = test system: UMC-11
In short: as §1

NCI-H596 = test system: NCI-H596
In short: as §1

PC-14 = test system: PC-14
In short: as §1

H3255 = test system: H3255
In short: as §1

A-427 = test system: A-427
In short: as §1

NCI-H1755 = test system: NCI-H1755
In short: as §1

LCLC-103H = test system: LCLC-103H
In short: as §1

NCI-H1437 = test system: NCI-H1437
In short: as §1

NCI-H2347 = test system: NCI-H2347
In short: as §1

NCI-H2009 = test system: NCI-H2009
In short: as §1

NCI-H2023 = test system: NCI-H2023
In short: as §1

NCI-H460 = test system: NCI-H460
In short: as §1

COCC1(CO)C(=O)C2CCN1CC2 (centres undefined) [PRIMA-1MET] + CC(=O)Nc1cccc(-n2c(=O)n(C3CC3)c(=O)c3c(Nc4ccc(I)cc4F)n(C)c(=O)c(C)c32)c1 [Trametinib] (partner 0.02 µM) was tested, and the relative viability (HCC-44; first compound 0.2 µM) was 1.01, the relative viability (HCC-44; first compound 0.6325 µM) was 0.951 and the relative viability (HCC-44; first compound 2 µM) was 1.12. It also gave a relative viability (HCC-44; first compound 6.325 µM) of 1.07, a relative viability (HCC-44; first compound 20 µM) of 1.03 and a relative viability (NCI-H441; first compound 0.2 µM) of 0.418. It also gave a relative viability (NCI-H441; first compound 0.6325 µM) of 0.297, a relative viability (NCI-H441; first compound 2 µM) of 0.369 and a relative viability (NCI-H441; first compound 6.325 µM) of 0.399. The relative viability (NCI-H441; first compound 20 µM) was 0.267, the relative viability (NCI-H23; first compound 0.2 µM) was 0.281 and the relative viability (NCI-H23; first compound 0.6325 µM) was 0.37. The relative viability (NCI-H23; first compound 2 µM) was 0.273, the relative viability (NCI-H23; first compound 6.325 µM) was 0.328 and the relative viability (NCI-H23; first compound 20 µM) was 0.112. The relative viability (NCI-H3122; first compound 0.2 µM) was 0.148, the relative viability (NCI-H3122; first compound 0.6325 µM) was 0.237 and the relative viability (NCI-H3122; first compound 2 µM) was 0.24. The relative viability (NCI-H3122; first compound 6.325 µM) was 0.17, the relative viability (NCI-H3122; first compound 20 µM) was 0.191 and the relative viability (NCI-H2405; first compound 0.2 µM) was 0.399. The relative viability (NCI-H2405; first compound 0.6325 µM) was 0.598, the relative viability (NCI-H2405; first compound 6.325 µM) was 0.463 and the relative viability (NCI-H2405; first compound 20 µM) was 0.0947. It also gave a relative viability (PC-3 [JPC-3]; first compound 0.2 µM) of 0.757, a relative viability (PC-3 [JPC-3]; first compound 0.6325 µM) of 0.667 and a relative viability (PC-3 [JPC-3]; first compound 2 µM) of 0.733. The relative viability (PC-3 [JPC-3]; first compound 6.325 µM) was 0.696, the relative viability (PC-3 [JPC-3]; first compound 20 µM) was 0.614 and the relative viability (NCI-H647; first compound 0.2 µM) was 0.306. It also gave a relative viability (NCI-H647; first compound 0.6325 µM) of 0.537, a relative viability (NCI-H647; first compound 2 µM) of 0.279 and a relative viability (NCI-H647; first compound 6.325 µM) of 0.456. It also gave a relative viability (NCI-H647; first compound 20 µM) of 0.413, a relative viability (HCC-366; first compound 0.2 µM) of 0.288 and a relative viability (HCC-366; first compound 0.6325 µM) of 0.289. The relative viability (HCC-366; first compound 2 µM) was 0.263, the relative viability (HCC-366; first compound 6.325 µM) was 0.431 and the relative viability (HCC-366; first compound 20 µM) was 0.0205. The relative viability (LXF-289; first compound 0.2 µM) was 0.582, the relative viability (LXF-289; first compound 0.6325 µM) was 0.591 and the relative viability (LXF-289; first compound 2 µM) was 0.67. It also gave a relative viability (LXF-289; first compound 6.325 µM) of 0.651, a relative viability (LXF-289; first compound 20 µM) of 0.659 and a relative viability (UMC-11; first compound 0.2 µM) of 0.705. It also gave a relative viability (UMC-11; first compound 0.6325 µM) of 0.569, a relative viability (UMC-11; first compound 2 µM) of 0.513 and a relative viability (UMC-11; first compound 6.325 µM) of 0.817. The relative viability (UMC-11; first compound 20 µM) was 0.749, the relative viability (NCI-H596; first compound 0.2 µM) was 0.888 and the relative viability (NCI-H596; first compound 0.6325 µM) was 0.718. For the same compound, the relative viability (NCI-H596; first compound 2 µM) was 0.66, the relative viability (NCI-H596; first compound 6.325 µM) was 0.837 and the relative viability (NCI-H596; first compound 20 µM) was 0.119. It also gave a relative viability (PC-14; first compound 0.2 µM) of 0.921, a relative viability (PC-14; first compound 0.6325 µM) of 0.618 and a relative viability (PC-14; first compound 2 µM) of 0.97. For the same compound, the relative viability (PC-14; first compound 6.325 µM) was 0.693, the relative viability (PC-14; first compound 20 µM) was 0.615 and the relative viability (H3255; first compound 0.2 µM) was 0.51. It also gave a relative viability (H3255; first compound 0.6325 µM) of 0.625, a relative viability (H3255; first compound 2 µM) of 0.57 and a relative viability (H3255; first compound 6.325 µM) of 0.575. It also gave a relative viability (H3255; first compound 20 µM) of 0.55, a relative viability (A-427; first compound 0.2 µM) of 0.533 and a relative viability (A-427; first compound 0.6325 µM) of 0.585. The relative viability (A-427; first compound 2 µM) was 0.786, the relative viability (A-427; first compound 6.325 µM) was 0.692 and the relative viability (A-427; first compound 20 µM) was 0.785. The relative viability (NCI-H1755; first compound 0.2 µM) was 0.676, the relative viability (NCI-H1755; first compound 0.6325 µM) was 0.729 and the relative viability (NCI-H1755; first compound 2 µM) was 0.644. For the same compound, the relative viability (NCI-H1755; first compound 6.325 µM) was 0.745, the relative viability (NCI-H1755; first compound 20 µM) was 0.762 and the relative viability (LCLC-103H; first compound 0.2 µM) was 0.675. The relative viability (LCLC-103H; first compound 0.6325 µM) was 0.619, the relative viability (LCLC-103H; first compound 2 µM) was 0.604 and the relative viability (LCLC-103H; first compound 6.325 µM) was 0.655. The relative viability (LCLC-103H; first compound 20 µM) was 0.709, the relative viability (NCI-H1437; first compound 0.2 µM) was 0.631 and the relative viability (NCI-H1437; first compound 0.6325 µM) was 0.525. For the same compound, the relative viability (NCI-H1437; first compound 2 µM) was 0.449, the relative viability (NCI-H1437; first compound 6.325 µM) was 0.546 and the relative viability (NCI-H1437; first compound 20 µM) was 0.479. For the same compound, the relative viability (NCI-H2347; first compound 0.2 µM) was 0.286, the relative viability (NCI-H2347; first compound 0.6325 µM) was 0.303 and the relative viability (NCI-H2347; first compound 2 µM) was 0.255. The relative viability (NCI-H2347; first compound 6.325 µM) was 0.225, the relative viability (NCI-H2347; first compound 20 µM) was 0.24 and the relative viability (NCI-H2009; first compound 0.2 µM) was 0.246. The relative viability (NCI-H2009; first compound 0.6325 µM) was 0.306, the relative viability (NCI-H2009; first compound 2 µM) was 0.237 and the relative viability (NCI-H2009; first compound 6.325 µM) was 0.252. For the same compound, the relative viability (NCI-H2009; first compound 20 µM) was 0.0028, the relative viability (NCI-H2023; first compound 0.2 µM) was 0.681 and the relative viability (NCI-H2023; first compound 0.6325 µM) was 0.556. The relative viability (NCI-H2023; first compound 2 µM) was 0.603, the relative viability (NCI-H2023; first compound 6.325 µM) was 0.711 and the relative viability (NCI-H2023; first compound 20 µM) was 0.546. For the same compound, the relative viability (NCI-H460; first compound 0.2 µM) was 0.0362, the relative viability (NCI-H460; first compound 0.6325 µM) was 0.0885 and the relative viability (NCI-H460; first compound 2 µM) was 0.0744. The relative viability (NCI-H460; first compound 6.325 µM) was 0.136 and the relative viability (NCI-H460; first compound 20 µM) was 0.0091.
